The target of experiment [1] is T1, HiBit-BRM fusion protein (Homo sapiens, UniProt P51531).
T1 construct: expressed in transfected cells
Description: HiBiT-BRM cell-based degradation assay (Nano-Glo HiBiT Lytic Detection, 24 h). As to conditions: HeLa cell line expressing HiBiT-BRM; for DC50: read-out: BRM HiBit Degradation IC50. The procedure, abridged:
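Stable HiBiT-BRM HeLa line; 24 h compound exposure, top final 30 μM, 3-fold, 10 pts in duplicate. Lytic HiBiT/LgBiT luminescence readout. % degradation vs DMSO (0%) and 2 μM known BRM/BRG1 degrader (100%).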
(With HiBiT, luminescence reflects the tagged protein that the partner subunit can reach.)

For experiment [2], the target named is T2, HiBit-BRG1 fusion protein (Homo sapiens, UniProt P51532).
T2 construct: expressed in transfected cells
Put plainly: HiBiT-BRG1 cell-based degradation assay (Nano-Glo HiBiT Lytic Detection, 24 h). As to conditions: HeLa cell line expressing HiBit-BRG1 and LgBit; for Dmax: read-out: BRG1 HiBit Degradation Maximum (%); for DC50: read-out: BRMG1 HiBit Degradation IC50. The procedure, abridged:
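HeLa cells stably expressing HiBiT-BRG1 plus LgBit, 5000/well, treated 24 h, then lysed with Nano-Glo HiBiT lytic reagent and luminescence read. % degradation normalised between DMSO (high control) and 2 μM reference BRM/BRG1 degrader (low control).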

Each structure is given as a SMILES string.

T2 sequence (P51532 whole entry, the tested form may be a part): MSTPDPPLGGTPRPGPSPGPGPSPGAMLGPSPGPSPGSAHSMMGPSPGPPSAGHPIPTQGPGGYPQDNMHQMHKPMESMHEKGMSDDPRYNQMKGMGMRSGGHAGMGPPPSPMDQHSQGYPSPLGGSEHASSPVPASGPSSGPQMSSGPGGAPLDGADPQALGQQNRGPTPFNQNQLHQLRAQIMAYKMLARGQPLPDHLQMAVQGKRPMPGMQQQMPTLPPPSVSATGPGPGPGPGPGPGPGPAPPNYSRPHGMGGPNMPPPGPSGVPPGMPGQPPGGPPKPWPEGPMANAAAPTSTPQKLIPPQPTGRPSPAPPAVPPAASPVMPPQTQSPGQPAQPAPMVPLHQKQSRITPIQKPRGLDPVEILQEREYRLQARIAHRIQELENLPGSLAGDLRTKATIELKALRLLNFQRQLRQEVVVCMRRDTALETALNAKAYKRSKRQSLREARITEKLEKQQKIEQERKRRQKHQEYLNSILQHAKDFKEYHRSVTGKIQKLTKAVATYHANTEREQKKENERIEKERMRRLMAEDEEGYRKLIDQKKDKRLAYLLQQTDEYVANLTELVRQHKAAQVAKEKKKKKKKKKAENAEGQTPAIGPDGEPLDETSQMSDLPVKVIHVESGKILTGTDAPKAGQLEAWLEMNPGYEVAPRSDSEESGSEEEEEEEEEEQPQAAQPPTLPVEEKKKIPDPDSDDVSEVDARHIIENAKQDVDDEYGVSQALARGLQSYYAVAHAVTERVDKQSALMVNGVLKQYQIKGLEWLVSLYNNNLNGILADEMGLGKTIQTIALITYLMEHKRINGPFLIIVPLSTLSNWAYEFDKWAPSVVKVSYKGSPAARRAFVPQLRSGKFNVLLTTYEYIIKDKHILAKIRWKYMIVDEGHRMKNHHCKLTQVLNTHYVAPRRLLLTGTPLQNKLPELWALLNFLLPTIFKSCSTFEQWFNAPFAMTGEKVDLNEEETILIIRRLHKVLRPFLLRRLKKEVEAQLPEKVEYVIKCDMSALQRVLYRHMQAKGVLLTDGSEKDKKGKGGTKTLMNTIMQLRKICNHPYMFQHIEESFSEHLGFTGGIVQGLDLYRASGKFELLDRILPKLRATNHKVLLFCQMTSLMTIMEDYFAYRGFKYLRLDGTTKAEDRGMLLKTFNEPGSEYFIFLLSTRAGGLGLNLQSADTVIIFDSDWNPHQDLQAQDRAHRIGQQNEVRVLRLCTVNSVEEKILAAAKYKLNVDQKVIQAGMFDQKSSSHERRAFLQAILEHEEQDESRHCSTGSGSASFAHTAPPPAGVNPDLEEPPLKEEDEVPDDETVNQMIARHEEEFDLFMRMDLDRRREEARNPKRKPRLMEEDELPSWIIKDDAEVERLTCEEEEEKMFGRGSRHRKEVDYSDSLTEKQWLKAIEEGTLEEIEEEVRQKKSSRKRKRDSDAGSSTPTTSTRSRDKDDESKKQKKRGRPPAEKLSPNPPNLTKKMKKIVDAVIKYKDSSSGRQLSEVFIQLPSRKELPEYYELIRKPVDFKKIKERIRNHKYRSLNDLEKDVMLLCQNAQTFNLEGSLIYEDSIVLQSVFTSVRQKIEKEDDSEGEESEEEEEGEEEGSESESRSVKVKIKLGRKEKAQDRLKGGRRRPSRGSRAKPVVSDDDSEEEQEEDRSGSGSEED
T1 sequence (P51531 whole entry, the tested form may be a part): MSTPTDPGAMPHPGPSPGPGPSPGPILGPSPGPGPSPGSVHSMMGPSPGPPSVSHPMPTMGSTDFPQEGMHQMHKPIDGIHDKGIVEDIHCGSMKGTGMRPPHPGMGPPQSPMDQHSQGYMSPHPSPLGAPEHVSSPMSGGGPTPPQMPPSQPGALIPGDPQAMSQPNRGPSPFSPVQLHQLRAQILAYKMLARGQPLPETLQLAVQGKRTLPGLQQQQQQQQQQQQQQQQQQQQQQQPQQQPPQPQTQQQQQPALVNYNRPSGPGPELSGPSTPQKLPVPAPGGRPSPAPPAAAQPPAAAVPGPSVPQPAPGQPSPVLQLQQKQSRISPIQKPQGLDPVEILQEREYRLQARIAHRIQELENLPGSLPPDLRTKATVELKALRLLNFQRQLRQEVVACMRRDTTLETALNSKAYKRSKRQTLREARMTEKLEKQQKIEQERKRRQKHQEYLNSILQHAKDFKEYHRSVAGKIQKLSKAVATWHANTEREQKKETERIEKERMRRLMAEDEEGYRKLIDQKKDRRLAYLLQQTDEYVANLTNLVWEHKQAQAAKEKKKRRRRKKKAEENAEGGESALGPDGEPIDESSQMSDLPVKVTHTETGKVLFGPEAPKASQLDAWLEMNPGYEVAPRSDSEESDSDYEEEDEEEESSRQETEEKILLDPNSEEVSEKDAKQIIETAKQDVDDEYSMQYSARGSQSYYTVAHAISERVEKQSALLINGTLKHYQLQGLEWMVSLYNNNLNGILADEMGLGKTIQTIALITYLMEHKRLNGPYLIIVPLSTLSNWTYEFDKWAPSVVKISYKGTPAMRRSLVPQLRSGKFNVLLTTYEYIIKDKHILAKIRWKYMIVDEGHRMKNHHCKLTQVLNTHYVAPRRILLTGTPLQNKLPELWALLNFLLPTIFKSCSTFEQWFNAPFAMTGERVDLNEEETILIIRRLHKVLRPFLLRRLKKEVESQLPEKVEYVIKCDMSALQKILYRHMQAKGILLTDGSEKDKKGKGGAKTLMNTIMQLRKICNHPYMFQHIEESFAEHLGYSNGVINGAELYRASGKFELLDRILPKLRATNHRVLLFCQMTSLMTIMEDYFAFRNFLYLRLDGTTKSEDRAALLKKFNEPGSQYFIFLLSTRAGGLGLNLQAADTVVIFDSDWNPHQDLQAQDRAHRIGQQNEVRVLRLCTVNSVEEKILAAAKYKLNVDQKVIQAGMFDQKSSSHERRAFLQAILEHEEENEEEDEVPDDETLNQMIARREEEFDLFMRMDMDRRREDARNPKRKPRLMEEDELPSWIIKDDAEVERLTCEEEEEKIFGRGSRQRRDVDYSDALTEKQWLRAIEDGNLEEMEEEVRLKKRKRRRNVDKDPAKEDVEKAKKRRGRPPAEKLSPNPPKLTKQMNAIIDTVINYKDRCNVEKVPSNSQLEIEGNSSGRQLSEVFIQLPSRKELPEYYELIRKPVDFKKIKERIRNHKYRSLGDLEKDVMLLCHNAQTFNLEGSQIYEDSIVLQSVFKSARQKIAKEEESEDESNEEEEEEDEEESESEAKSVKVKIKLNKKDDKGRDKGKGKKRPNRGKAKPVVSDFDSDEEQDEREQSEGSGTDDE

Take `Cc1ncsc1-c1ccc(CNC(=O)[C@@H]2C[C@@H](O)CN2C(=O)[C@@H](NC(=O)CCN2CC(c3c[nH]c4nnc(-c5ccccc5O)cc34)C2)C(C)(C)C)cc1` [Compound 35, (2S,4R)-4-hydroxy-1-((S)-2-(3-(3-(3-(2-hydroxyphenyl)-7H-pyrrolo[2,3-c]pyridazin-5-yl)azetidin-1-yl)propanamido)-3,3-dimethylbutanoyl)-N-(4-(4-methylthiazol-5-yl)benzyl)pyrrolidine-2-carboxamide]: the “BRM HiBit Degradation Maximum (%)” value in experiment [1] is on record as “C (“C” indicates maximum degradation < 50%)”. For the same compound, the Dmax in experiment [2] was < 50%.

For `Cc1ncsc1-c1ccc(CNC(=O)[C@@H]2C[C@@H](O)CN2C(=O)[C@@H](NC(=O)CCCCCCCCCCC(=O)N2CC(c3c[nH]c4nnc(-c5ccccc5O)cc34)C2)C(C)(C)C)cc1` [Compound 46, (2S,4R)-4-hydroxy-1-((S)-2-(12-(3-(3-(2-hydroxyphenyl)-7H-pyrrolo[2,3-c]pyridazin-5-yl)azetidin-1-yl)-12-oxododecanamido)-3,3-dimethylbutanoyl)-N-(4-(4-methylthiazol-5-yl)benzyl)pyrrolidine-2-carboxamide], the “BRM HiBit Degradation Maximum (%)” value in experiment [1] is “C (“C” indicates maximum degradation < 50%)”. Also, the Dmax in experiment [2] is < 50%.

For the compound `Cc1ncsc1-c1ccc([C@H](C)NC(=O)[C@@H]2C[C@@H](O)CN2C(=O)C(c2cc(C3CCN(C(=O)[C@H]4CCc5[nH]c6nnc(-c7ccccc7O)cc6c5C4)CC3)no2)C(C)C)cc1` (single isomer, unassigned) [Compound 147], in experiment [1], the “BRM HiBit Degradation Maximum (%)” value was “A (“A” indicates maximum degradation ≥ 75%)” and the DC50 was > 10 nM. Moreover, in experiment [2], the Dmax was > 50% and the DC50 was > 100 nM.

Consider `Cc1ncsc1-c1ccc([C@H](C)NC(=O)[C@@H]2C[C@@H](O)CN2C(=O)[C@@H](NC(=O)CCCCCCCCCCCCCC(=O)N2CC(c3cc4cc(-c5ccccc5O)nnc4[nH]3)C2)C(C)(C)C)cc1` [Compound 11, (2S,4R)-4-hydroxy-1-((S)-2-(15-(3-(3-(2-hydroxyphenyl)-7H-pyrrolo[2,3-c]pyridazin-6-yl)azetidin-1-yl)-15-oxopentadecanamido)-3,3-dimethylbutanoyl)-N-((S)-1-(4-(4-methylthiazol-5-yl)phenyl)ethyl)pyrrolidine-2-carboxamide], for which, in experiment [1], the “BRM HiBit Degradation Maximum (%)” value is reported as “B (“B” indicates maximum degradation ≥ 50%)” and the DC50 was > 100 nM. Moreover, the Dmax in experiment [2] was < 50%.

For `Cc1ncsc1-c1ccc([C@H](C)NC(=O)[C@@H]2C[C@@H](O)CN2C(=O)[C@@H](c2cc(OCCN3CCC34CC(c3cc5cc(-c6ccccc6O)nnc5[nH]3)C4)no2)C(C)C)cc1` (mixture of isomers) [Compound 161, (2S,4R)-4-hydroxy-1-((R)-2-(3-(2-(6-(3-(2-hydroxyphenyl)-7H-pyrrolo[2,3-c]pyridazin-6-yl)-1-azaspiro[3.3]heptan-1-yl)ethoxy)isoxazol-5-yl)-3-methylbutanoyl)-N-((S)-1-(4-(4-methylthiazol-5-yl)phenyl)ethyl)pyrrolidine-2-carboxamide], in experiment [1], the “BRM HiBit Degradation Maximum (%)” value is “A (“A” indicates maximum degradation ≥ 75%)” and the DC50 is > 10 nM. Also, in experiment [2], the Dmax is > 75% and the DC50 was > 100 nM.

As to `O=C1CCC(N2C(=O)c3cccc(OCCCCCCC(=O)N4CC(c5cc6cc(-c7ccccc7O)nnc6[nH]5)C4)c3C2=O)C(=O)N1` (stereo not shown) [Compound 31, 2-(2,6-dioxopiperidin-3-yl)-4-((7-(3-(3-(2-hydroxyphenyl)-7H-pyrrolo[2,3-c]pyridazin-6-yl)azetidin-1-yl)-7-oxoheptyl)oxy)isoindoline-1,3-dione], in experiment [1], the “BRM HiBit Degradation Maximum (%)” value was “C (“C” indicates maximum degradation < 50%)”. The Dmax in experiment [2] is < 50%.

With `Cc1ncsc1-c1ccc([C@H](C)NC(=O)[C@@H]2C[C@@H](O)CN2C(=O)[C@@H](c2cc(N3CCC(c4cnc(N5CCC(c6c[nH]c7nnc(-c8ccccc8O)cc67)CC5)nc4)CC3)no2)C(C)C)cc1` (single isomer, unassigned) [Compound 92], in experiment [1], the “BRM HiBit Degradation Maximum (%)” value is given as “A (“A” indicates maximum degradation ≥ 75%)” and the DC50 is > 10 nM. In experiment [2], the Dmax is > 75% and the DC50 is > 10 nM.

For the compound `Cc1ncsc1-c1ccc([C@H](C)NC(=O)[C@@H]2C[C@@H](O)CN2C(=O)[C@@H](c2cc(OCCN3CCC(O)(c4cc5cc(-c6ccccc6O)nnc5[nH]4)CC3)no2)C(C)C)cc1` (racemic) [Compound 277, (2S,4R)-4-hydroxy-1-((R)-2-(3-(2-(4-hydroxy-4-(3-(2-hydroxyphenyl)-7H-pyrrolo[2,3-c]pyridazin-6-yl)piperidin-1-yl)ethoxy)isoxazol-5-yl)-3-methylbutanoyl)-N-((S)-1-(4-(4-methylthiazol-5-yl)phenyl)ethyl)pyrrolidine-2-carboxamide], in experiment [1], the “BRM HiBit Degradation Maximum (%)” value was “A (“A” indicates maximum degradation ≥ 75%)” and the DC50 is > 100 nM. Further, the Dmax in experiment [2] was < 50%.

Take `Cc1ncsc1-c1ccc([C@H](C)NC(=O)[C@@H]2C[C@@H](O)CN2C(=O)[C@H](c2cc(C3CN(C(=O)[C@@H]4CCc5[nH]c6nnc(-c7ccccc7O)cc6c5C4)C3)no2)C(C)C)cc1` (single isomer, unassigned) [Compound 154]: the “BRM HiBit Degradation Maximum (%)” value in experiment [1] is “C (“C” indicates maximum degradation < 50%)”. Besides, the Dmax in experiment [2] was < 50%.

For the compound `Cc1ncsc1-c1ccc(CNC(=O)[C@@H]2C[C@@H](O)CN2C(=O)[C@@H](NC(=O)CCCC(=O)N2CC(c3c[nH]c4nnc(-c5ccccc5O)cc34)C2)C(C)(C)C)cc1` [Compound 40, (2S,4R)-4-hydroxy-1-((S)-2-(5-(3-(3-(2-hydroxyphenyl)-7H-pyrrolo[2,3-c]pyridazin-5-yl)azetidin-1-yl)-5-oxopentanamido)-3,3-dimethylbutanoyl)-N-(4-(4-methylthiazol-5-yl)benzyl)pyrrolidine-2-carboxamide], in experiment [1], the “BRM HiBit Degradation Maximum (%)” value is recorded as “C (“C” indicates maximum degradation < 50%)”. Besides, the Dmax in experiment [2] was < 50%.

As to `Cc1ncsc1-c1ccc([C@H](C)NC(=O)[C@@H]2C[C@@H](O)CN2C(=O)[C@@H](c2cc(OCCNC(=O)C(=O)N3CC(c4cc5cc(-c6ccccc6O)nnc5[nH]4)C3)no2)C(C)C)cc1` (racemic) [Compound 240, (2S,4R)-4-hydroxy-1-((R)-2-(3-(2-(2-(3-(3-(2-hydroxyphenyl)-7H-pyrrolo[2,3-c]pyridazin-6-yl)azetidin-1-yl)-2-oxoacetamido)ethoxy)isoxazol-5-yl)-3-methylbutanoyl)-N-((S)-1-(4-(4-methylthiazol-5-yl)phenyl)ethyl)pyrrolidine-2-carboxamide], in experiment [1], the “BRM HiBit Degradation Maximum (%)” value is “A (“A” indicates maximum degradation ≥ 75%)” and the DC50 is > 100 nM. In experiment [2], the Dmax is > 50% and the DC50 was > 1000 nM.

For `Cc1ncsc1-c1ccc([C@H](C)NC(=O)[C@@H]2C[C@@H](O)CN2C(=O)[C@@H](c2cc(OCCN[C@H]3CCc4[nH]c5nnc(-c6ccccc6O)cc5c4C3)no2)C(C)C)cc1` (single isomer, unassigned) [Compound 200], in experiment [1], the “BRM HiBit Degradation Maximum (%)” value is “A (“A” indicates maximum degradation ≥ 75%)” and the DC50 was > 10 nM. Besides, in experiment [2], the Dmax was < 50%.

As for `Cc1ncsc1-c1ccc([C@H](C)NC(=O)[C@@H]2C[C@@H](O)CN2C(=O)C(c2cc(N3CCC(C(=O)N4CC(c5c[nH]c6nnc(-c7ccccc7O)cc56)C4)CC3)no2)C(C)C)cc1` (mixture of isomers) [Compound 236, (2S,4R)-4-hydroxy-1-((R)-2-(3-(4-(3-(3-(2-hydroxyphenyl)-7H-pyrrolo[2,3-c]pyridazin-5-yl)azetidine-1-carbonyl)piperidin-1-yl)isoxazol-5-yl)-3-methylbutanoyl)-N-((S)-1-(4-(4-methylthiazol-5-yl)phenyl)ethyl)pyrrolidine-2-carboxamide], the “BRM HiBit Degradation Maximum (%)” value in experiment [1] is recorded as “C (“C” indicates maximum degradation < 50%)”. For the same compound, the Dmax in experiment [2] was < 50%.

Regarding `Cc1ncsc1-c1ccc([C@H](C)NC(=O)[C@@H]2C[C@@H](O)CN2C(=O)[C@@H](c2cc(OCCN3CCC(c4cc5cc(-c6ccccc6O)nnc5[nH]4)C3)no2)C(C)C)cc1` (mixture of isomers) [Compound 52, (2S,4R)-4-hydroxy-1-((2R)-2-(3-(2-(3-(3-(2-hydroxyphenyl)-7H-pyrrolo[2,3-c]pyridazin-6-yl)pyrrolidin-1-yl)ethoxy)isoxazol-5-yl)-3-methylbutanoyl)-N-((S)-1-(4-(4-methylthiazol-5-yl)phenyl)ethyl)pyrrolidine-2-carboxamide], in experiment [1], the “BRM HiBit Degradation Maximum (%)” value was “A (“A” indicates maximum degradation ≥ 75%)” and the DC50 was > 10 nM. Further, in experiment [2], the Dmax is < 50%.

On to `Cc1ncsc1-c1ccc([C@H](C)NC(=O)[C@@H]2C[C@@H](O)CN2C(=O)[C@@H](c2cc(C3CCN(C(=O)[C@@]4(N)CCc5[nH]c6nnc(-c7ccccc7O)cc6c5C4)CC3)no2)C(C)C)cc1` (relative stereo) [Compound 103, (2S,4R)-1-[(2R)-2-(3-{1-[(6R*)-6-amino-3-(2-hydroxyphenyl)-5H,7H,8H,9H-pyridazino[3,4-blindole-6-carbonyl]piperidin-4-yl}-1,2-oxazol-5-yl)-3-methylbutanoyl]-4-hydroxy-N-[(1S)-1-[4-(4-methyl-1,3-thiazol-5-yl)phenyl]ethyl]pyrrolidine-2-carboxamide], for which, in experiment [1], the “BRM HiBit Degradation Maximum (%)” value is on record as “B (“B” indicates maximum degradation ≥ 50%)” and the DC50 is > 100 nM. In experiment [2], the Dmax is < 50%.

These data come from patent US20240024488A1, “COMPOUNDS AND USES THEREOF” (Foghorn Therapeutics Inc., priority 2020, published 2024).
